Assay [1] deals with CRBN/DDB1 (Homo sapiens (Human), UniProt Q96SW2). As to the kind of experiment: HTRF binding assay to CRBN/DDB1. Conditions: read-out: CRBN HTRF IC50. As to the method: The binding potency was determined using HTRF assay technology (Perkin Elmer). Compounds were serially diluted in DMSO and 0.2 μL volume was transferred to white 384-well plate.
(In general: In TR-FRET formats the signal depends on donor and acceptor labels being close together.)

Assay [2] addresses T1, ER (Homo sapiens (Human), UniProt P03372). As to the kind of experiment: In-cell western (ICW) ER degradation assay in MCF-7 cells. The format is cell-based. The conditions noted are these: MCF7, 16 hrs; for DC50: ER degradation; for Dmax: MCF7, maximal ER degradation; for MCF7 Dmax %: maximal ER degradation.
The target in assay [3] is T1, ER. The assay can be described thus: In-cell western (ICW) ER degradation assay in T47D cells. It is filed as cell-based. Conditions: 16 hrs; for DC50: ER degradation; for Dmax / T47D Dmax %: maximal ER degradation.

The values below come from patent US20260000676A1, “CHROMAN DERIVATIVES AS ESTROGEN RECEPTOR DEGRADERS” (THE REGENTS OF THE UNIVERSITY OF MICHIGAN, priority 2022, published 2026).

Where a name gives a salt, the structure may show the parent alone.

CRBN/DDB1, sequence (Q96SW2 whole entry): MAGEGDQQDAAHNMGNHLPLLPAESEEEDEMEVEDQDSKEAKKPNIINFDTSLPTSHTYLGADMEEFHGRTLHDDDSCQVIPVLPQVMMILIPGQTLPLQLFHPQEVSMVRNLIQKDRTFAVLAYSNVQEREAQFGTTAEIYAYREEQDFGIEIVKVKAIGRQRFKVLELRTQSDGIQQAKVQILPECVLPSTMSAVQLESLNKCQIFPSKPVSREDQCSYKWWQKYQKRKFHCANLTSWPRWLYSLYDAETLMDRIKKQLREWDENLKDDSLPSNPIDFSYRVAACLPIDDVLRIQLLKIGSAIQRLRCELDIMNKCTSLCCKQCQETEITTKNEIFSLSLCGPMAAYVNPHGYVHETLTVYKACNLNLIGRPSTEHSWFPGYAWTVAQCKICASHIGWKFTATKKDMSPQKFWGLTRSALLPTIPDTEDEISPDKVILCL
CRBN/DDB1, sequence (Q16531 whole entry partner): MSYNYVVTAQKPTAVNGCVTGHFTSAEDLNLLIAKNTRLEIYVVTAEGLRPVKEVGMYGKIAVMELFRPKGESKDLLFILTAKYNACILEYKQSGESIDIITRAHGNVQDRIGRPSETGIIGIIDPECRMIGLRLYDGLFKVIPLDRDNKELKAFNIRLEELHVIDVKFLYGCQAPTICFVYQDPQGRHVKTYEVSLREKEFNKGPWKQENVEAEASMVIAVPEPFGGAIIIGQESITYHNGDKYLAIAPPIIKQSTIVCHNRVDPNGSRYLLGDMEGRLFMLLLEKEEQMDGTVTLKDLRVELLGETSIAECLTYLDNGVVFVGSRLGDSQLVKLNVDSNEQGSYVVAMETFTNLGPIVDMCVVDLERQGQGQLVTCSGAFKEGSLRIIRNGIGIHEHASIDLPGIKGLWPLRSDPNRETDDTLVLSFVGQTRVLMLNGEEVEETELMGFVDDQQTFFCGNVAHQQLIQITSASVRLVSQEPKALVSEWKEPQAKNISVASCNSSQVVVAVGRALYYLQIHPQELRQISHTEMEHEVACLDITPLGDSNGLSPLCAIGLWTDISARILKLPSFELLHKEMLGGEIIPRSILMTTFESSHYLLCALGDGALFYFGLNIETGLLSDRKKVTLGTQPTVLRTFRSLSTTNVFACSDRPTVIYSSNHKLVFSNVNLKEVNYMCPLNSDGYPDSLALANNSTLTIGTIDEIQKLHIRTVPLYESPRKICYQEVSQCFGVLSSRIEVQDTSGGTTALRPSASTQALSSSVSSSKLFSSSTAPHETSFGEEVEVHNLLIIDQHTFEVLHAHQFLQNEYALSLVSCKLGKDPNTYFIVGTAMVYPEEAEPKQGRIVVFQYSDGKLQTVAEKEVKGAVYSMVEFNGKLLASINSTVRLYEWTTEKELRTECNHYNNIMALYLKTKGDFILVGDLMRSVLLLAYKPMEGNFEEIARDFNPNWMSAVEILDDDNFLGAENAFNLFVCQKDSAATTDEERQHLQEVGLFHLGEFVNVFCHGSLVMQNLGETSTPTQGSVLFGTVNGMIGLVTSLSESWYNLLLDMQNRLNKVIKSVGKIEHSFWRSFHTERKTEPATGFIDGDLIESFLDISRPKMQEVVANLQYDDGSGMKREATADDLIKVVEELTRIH
T1 sequence (P03372 whole entry): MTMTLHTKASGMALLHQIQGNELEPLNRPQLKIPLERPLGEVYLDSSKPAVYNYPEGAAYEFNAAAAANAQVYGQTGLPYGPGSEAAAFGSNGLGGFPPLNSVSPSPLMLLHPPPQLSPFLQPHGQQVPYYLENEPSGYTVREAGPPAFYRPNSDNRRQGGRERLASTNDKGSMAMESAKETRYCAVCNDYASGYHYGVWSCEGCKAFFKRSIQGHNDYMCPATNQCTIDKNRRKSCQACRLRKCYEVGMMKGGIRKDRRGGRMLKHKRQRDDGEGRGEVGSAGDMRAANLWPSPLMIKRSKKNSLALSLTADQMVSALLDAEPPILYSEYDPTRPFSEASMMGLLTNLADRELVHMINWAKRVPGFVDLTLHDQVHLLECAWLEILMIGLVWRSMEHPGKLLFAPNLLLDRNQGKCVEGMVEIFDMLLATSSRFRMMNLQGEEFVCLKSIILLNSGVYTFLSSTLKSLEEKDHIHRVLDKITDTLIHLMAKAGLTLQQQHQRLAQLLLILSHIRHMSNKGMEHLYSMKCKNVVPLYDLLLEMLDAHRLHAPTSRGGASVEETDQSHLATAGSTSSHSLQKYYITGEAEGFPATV

Regarding `O=C1CCC(Nc2ccc(N3CCN(CC4CC5(CCN(c6ccc([C@@H]7c8ccc(O)cc8OC[C@@H]7c7ccccc7)cc6)CC5)C4)CC3)c(F)c2)C(=O)N1` (stereo partly drawn) [Compound A52, 3-((3-fluoro-4-(4-((7-(4-((3S,4R)-7-hydroxy-3-phenylchroman-4-yl)phenyl)-7-azaspiro[3.5]nonan-2-yl)methyl)piperazin-1-yl)phenyl)amino)piperidine-2,6-dione], the IC50 in assay [1] was 50 to 500 nM. Besides, the 50% degradation concentration (DC50) is above 100 nM in assay [2] and below 1 nM in assay [3]. Also, the maximal degradation (Dmax) in assay [2] was below 25%; in assay [3], 25 to 50%.
Take `O=C1CC[C@@H](N2Cc3c(ccc4c3OC[C@@H]3CN(C[C@H]5COC6(CCN(c7ccc([C@H]8c9ccc(O)cc9OC[C@H]8c8ccccc8)cc7)CC6)C5)CCN43)C2=O)C(=O)N1` [Compound A133, (R)-3-((S)-7-(((S)-8-(4-((3R,4S)-7-hydroxy-3-phenylchroman-4-yl)phenyl)-1-oxa-8-azaspiro[4.5]decan-3-yl)methyl)-1-oxo-1,3,5,5a,6,7,8,9-octahydro-2H-pyrazino[1′,2′:4,5][1,4]oxazino[2,3-e]isoindol-2-yl)piperidine-2,6-dione]: the IC50 in assay [1] is below 50 nM. For the same compound, in assay [2], the DC50 lay in the range of 1 to 10 nM and the greatest degradation seen (Dmax) lay in the range of 25 to 50%. In assay [3], the DC50 was below 1 nM and the Dmax is 25 to 50%.
In the case of `COc1cc(N2CCC3(CC2)CC(CN2CCC4(CC2)COc2c4ccc4c2CN(C2CCC(=O)NC2=O)C4=O)C3)c(F)cc1[C@H]1c2ccc(O)cc2OC[C@H]1c1ccccc1` (stereo partly drawn) [Compound A131, 3-(1′-((7-(2-fluoro-4-((3R,4R)-7-hydroxy-3-phenylchroman-4-yl)-5-methoxyphenyl)-7-azaspiro[3.5]nonan-2-yl)methyl)-6-oxo-6,8-dihydro-2H,7H-spiro[furo[2,3-e]isoindole-3,4′-piperidin]-7-yl)piperidine-2,6-dione], in assay [1], the half-maximal inhibitory concentration (IC50) was below 50 nM. For the same compound, in assay [2], the DC50 lay in the range of 1 to 10 nM; the “MCF7 Dmax %” value was “B (“B”: >50% and <75%)”. Further, in assay [3], the DC50 was 1 to 10 nM; the “T47D Dmax %” value is “B (“B”: >50% and <75%)”.
Regarding `O=C1CCC(Nc2ccc(C34CCN(CC5COC6(CCN(c7ccc([C@@H]8c9ccc(O)cc9OC[C@@H]8c8ccccc8)cc7F)CC6)C5)CC3C4(F)F)cc2)C(=O)N1` (stereo partly drawn) [Compound A159, 3-((4-(7,7-difluoro-3-(((R)-8-(2-fluoro-4-((3S,4R)-7-hydroxy-3-phenylchroman-4-yl)phenyl)-1-oxa-8-azaspiro[4.5]decan-3-yl)methyl)-3-azabicyclo[4.1.0]heptan-6-yl)phenyl)amino)piperidine-2,6-dione], the IC50 in assay [1] is 500 to 5000 nM. Besides, in assay [2], the DC50 lay in the range of 1 to 10 nM and the Dmax was in the range of 25 to 50%. In addition, in assay [3], the 50% degradation concentration (DC50) was 1 to 10 nM and the Dmax lay within 50 to 75%.
In the case of `COc1cccc([C@H]2COc3cc(O)ccc3[C@H]2c2ccc(N3CCC(CN4CCN5c6ccc7c(c6OC[C@H]5C4)CN(C4CCC(=O)NC4=O)C7=O)CC3)cc2)c1` (single isomer, unassigned) [Compound A33], the IC50 in assay [1] is below 50 nM. The DC50 in assay [2] and in assay [3] was 1 to 10 nM each time.
For `O=C1CCC(Nc2ccc(C34CCN(CC5COC6(CCN(c7ccc([C@H]8c9ccc(O)cc9OC[C@H]8c8ccccc8)cc7F)CC6)C5)CC3C4(F)F)cc2)C(=O)N1` (stereo partly drawn) [Compound A156, 3-((4-(7,7-difluoro-3-(((R)-8-(2-fluoro-4-((3R,4S)-7-hydroxy-3-phenylchroman-4-yl)phenyl)-1-oxa-8-azaspiro[4.5]decan-3-yl)methyl)-3-azabicyclo[4.1.0]heptan-6-yl)phenyl)amino)piperidine-2,6-dione], in assay [1], the IC50 is 500 to 5000 nM. In addition, in assay [2], the half-maximal degradation concentration (DC50) was above 100 nM and the maximal degradation (Dmax) is below 25%. For the same compound, in assay [3], the 50% degradation concentration (DC50) is below 1 nM and the Dmax lay within 25 to 50%.
As to `COc1cc(N2CCC(CN3CCN4c5cc6c(cc5OC[C@H]4C3)C(=O)N(C3CCC(=O)NC3=O)C6)CC2)ccc1[C@H]1c2ccc(O)cc2OC[C@H]1c1ccccc1` (stereo partly drawn) [Compound A74, 3-((R)-3-((1-(4-((3R,4S)-7-hydroxy-3-phenylchroman-4-yl)-3-methoxyphenyl)piperidin-4-yl)methyl)-8-oxo-1,2,3,4,4a,5,8,10-octahydro-9H-pyrazino[1′,2′:4,5][1,4]oxazino[2,3-f]isoindol-9-yl)piperidine-2,6-dione], the concentration for half-maximal inhibition (IC50) in assay [1] is 500 to 5000 nM. In assay [2], this compound had a half-maximal degradation concentration (DC50) below 1 nM and a maximal degradation (Dmax) below 25%. In assay [3], the half-maximal degradation concentration (DC50) was 1 to 10 nM and the greatest degradation seen (Dmax) lay in the range of 25 to 50%.
Regarding `O=C1CCC(N2C(=O)c3cc4c(cc3C2=O)CN(C(=O)CN2CC3(CCN(c5ccc([C@H]6c7ccc(O)cc7OC[C@H]6c6ccccc6)cc5)CC3)C2)C4)C(=O)N1` (single isomer, unassigned) [Compound A55, formate], the IC50 in assay [1] lay in the range of 500 to 5000 nM. In assay [2], the 50% degradation concentration (DC50) was above 100 nM and the Dmax is below 25%. In assay [3], this compound had a half-maximal degradation concentration (DC50) above 100 nM and a maximal degradation (Dmax) below 25%.
In the case of `O=C1CC[C@@H](Nc2ccc(C3CCN(C[C@H]4COC5(CCN(c6ccc([C@@H]7c8ccc(O)cc8OC[C@@H]7c7ccccc7)cc6)CC5)C4)CC3)c(F)c2)C(=O)N1` (single isomer, unassigned) [Compound A163], the half-maximal inhibitory concentration (IC50) in assay [1] lay within 50 to 500 nM. Further, in assay [2], the half-maximal degradation concentration (DC50) is below 1 nM and the maximal degradation (Dmax) is 25 to 50%. Also, in assay [3], the DC50 is below 1 nM and the maximal degradation (Dmax) was in the range of 50 to 75%.
Regarding `O=C1CC[C@H](N2Cc3c(ccc4c3OC[C@H]3CN(C[C@@H]5COC6(CCN(c7ccc([C@@H]8c9ccc(O)cc9OC[C@@H]8c8ccccc8)cc7F)CC6)C5)CCN43)C2=O)C(=O)N1` (single isomer, unassigned) [Compound A157], in assay [1], the IC50 is below 50 nM. Moreover, in assay [2], the 50% degradation concentration (DC50) was below 1 nM and the Dmax was in the range of 50 to 75%. In assay [3], this compound displayed a DC50 below 1 nM and a Dmax of at least 75%.
`COc1cc(N2CCC(CN3CCC4(CC3)COc3c4ccc4c3CN(C3CCC(=O)NC3=O)C4=O)CC2)ccc1[C@H]1c2ccc(O)cc2OC[C@H]1c1ccccc1` (stereo partly drawn) [Compound A135, 3-(1′-((1-(4-((3R,4S)-7-hydroxy-3-phenylchroman-4-yl)-3-methoxyphenyl)piperidin-4-yl)methyl)-6-oxo-6,8-dihydro-2H,7H-spiro[furo[2,3-e]isoindole-3,4′-piperidin]-7-yl)piperidine-2,6-dione]: the IC50 in assay [1] was below 50 nM. In assay [2], this compound gave a DC50 below 1 nM and a Dmax of 25 to 50%. In assay [3], this compound came in with a DC50 below 1 nM and a Dmax of 25 to 50%.
As to `O=C1CCC(NC(=O)c2ccc(N3CCC(CN4CCN(c5ccc([C@H]6c7ccc(O)cc7OC[C@H]6c6ccccc6)cc5)CC4)CC3)cn2)C(=O)N1` (stereo partly drawn) [Compound A129, N-(2,6-dioxopiperidin-3-yl)-5-(4-((4-(4-((3R,4S)-7-hydroxy-3-phenylchroman-4-yl)phenyl)piperazin-1-yl)methyl)piperidin-1-yl)picolinamide], the half-inhibitory concentration (IC50) in assay [1] is above 5000 nM. In assay [2], the DC50 fell in the range of 10 to 100 nM and the “MCF7 Dmax %” value is on record as “C (“C”: 25%-50%)”. Moreover, in assay [3], the DC50 lay in the range of 10 to 100 nM; the “T47D Dmax %” value is “B (“B”: >50% and <75%)”.
As for `O=C1CCN(c2ccc(N3CCC4(CC3)CC(CN3CCN(c5ccc([C@H]6c7ccc(O)cc7OC[C@H]6c6ccccc6)cc5)CC3)C4)cc2)C(=O)N1` (single isomer, unassigned) [Compound A107], the IC50 in assay [1] is above 5000 nM. Also, in assay [2], the DC50 is 1 to 10 nM and the greatest degradation seen (Dmax) was in the range of 25 to 50%. In assay [3], this compound came in with a 50% degradation concentration (DC50) below 1 nM and a Dmax of 25 to 50%.
Take `Cn1c(=O)n(C2CCC(=O)NC2=O)c2ccc(C3CCN(CC4CC5(CCN(c6ccc([C@@H]7c8ccc(O)cc8OC[C@@H]7c7ccccc7)cc6)CC5)C4)CC3)cc21` (single isomer, unassigned) [Compound A73]: in assay [1], the IC50 is below 50 nM. In assay [2], this compound returned a half-maximal degradation concentration (DC50) below 1 nM and a maximal degradation (Dmax) of 50 to 75%. Moreover, in assay [3], the DC50 was below 1 nM and the maximal degradation (Dmax) is 50 to 75%.
Consider `O=C1CCC(N2Cc3c(ccc4c3OC[C@H]3CN(CC5CC6(CCN(c7ccc([C@@H]8c9ccc(O)cc9OC[C@@H]8c8ccccc8)cn7)CC6)C5)CCN43)C2=O)C(=O)N1` (single isomer, unassigned) [Compound A65], for which, in assay [1], the IC50 lay in the range of 50 to 500 nM. For the same compound, in assay [2], the DC50 was in the range of 1 to 10 nM and the “MCF7 Dmax %” value is on record as “D (“D”; <25%)”. In addition, in assay [3], the DC50 is 1 to 10 nM and the “T47D Dmax %” value is given as “C (“C”: 25%-50%)”.
Take `O=C1CC[C@@H](N2Cc3cc4c(cc3C2=O)OC[C@H]2CN(C[C@@H]3COC5(CCN(c6ccc([C@H]7c8ccc(O)cc8OC[C@H]7c7ccccc7)cc6F)CC5)C3)CCN42)C(=O)N1` [Compound A160, (R)-3-((R)-3-(((R)-8-(2-fluoro-4-((3R,4S)-7-hydroxy-3-phenylchroman-4-yl)phenyl)-1-oxa-8-azaspiro[4.5]decan-3-yl)methyl)-8-oxo-1,2,3,4,4a,5,8,10-octahydro-9H-pyrazino[1′,2′:4,5][1,4]oxazino[2,3-f]isoindol-9-yl)piperidine-2,6-dione]: the half-inhibitory concentration (IC50) in assay [1] was 500 to 5000 nM. Further, in assay [2], the DC50 was 1 to 10 nM and the Dmax was below 25%. In assay [3], this compound came in with a 50% degradation concentration (DC50) of 1 to 10 nM and a Dmax of 25 to 50%.
As for `COc1cc(N2CCC(CN3CCN4c5ccc6c(c5OC[C@H]4C3)CN(C3CCC(=O)NC3=O)C6=O)CC2)c(F)cc1[C@H]1c2ccc(O)cc2OC[C@H]1c1ccccc1` (stereo partly drawn) [Compound A105, (R)-3-((S)-7-((1-(2-fluoro-4-((3R,4R)-7-hydroxy-3-phenylchroman-4-yl)-5-methoxyphenyl)piperidin-4-yl)methyl)-1-oxo-1,3,5,5a,6,7,8,9-octahydro-2H-pyrazino[1′,2′:4,5][1,4]oxazino[2,3-e]isoindol-2-yl)piperidine-2,7-dione], the 50% inhibitory concentration (IC50) in assay [1] was below 50 nM. Also, in assay [2], the DC50 fell in the range of 10 to 100 nM and the Dmax was in the range of 25 to 50%. Moreover, in assay [3], the DC50 lay in the range of 1 to 10 nM and the greatest degradation seen (Dmax) was in the range of 25 to 50%.

What is called IC50 is the concentration needed to halve the response being measured. A word on the DC50: it is the concentration giving 50% degradation. Read a low DC50 as degradation at low concentration. Broadly, the Dmax is the greatest extent of degradation seen.
